Test results: patent US11834453B2, “Substituted pyrimido[5,4-d]pyrimidines as HER2 inhibitors” (Array BioPharma Inc., priority 2020, dated 2023)
Like-named read-outs stand apart in the source and are kept apart here.

What was measured:
[1] = target: ErbB2 with Exon 20 YVMA insertion (HER2-YVMA) (Homo sapiens (Human), UniProt P04626, INS775YVMA); test: Cellular phosphorylation assay, constitutive ErbB2 phosphorylation (Y1196) in engineered NIH 3T3 cells, Assay 4; assay type: cell-based
Method: Serially diluted compounds were added to the plates for 1 hour at 37° C./5% CO2. EGFR WT cells were stimulated with 100 ng/ml rEGF for an additional 10 minutes at 37° C./5% CO2. After compound incubation, medium was removed from the cells, which were then fixed in 3.7% formaldehyde in PBS at room temperature for 20 minutes. Following a wash with PBS, cells were permeabilized with 100% methanol at room temperature for 10 minutes. Cells were then washed with PBS/0.05% Tween-20 and blocked with Odyssey blocking buffer (LI-COR Biosciences) for at least 1 hour at room temperature. Antibodies to phosphorylated ErbB2 (Y1196, Cell Signaling #6942) or phosphorylated EGFR (Y1068, Cell Signaling #3777) and GAPDH (Millipore #MAB374) were added to the cells in blocking buffer containing 0.05% azide and incubated overnight at 4° C. After washing with PBS/0.05° i° Tween-20, the cells were incubated with fluorescently labeled secondary anti-rabbit antibody (LiCOR, IRDye 800CW #926-32211) and anti-mouse antibody (Molecular Probes, Alexa Fluor 680 #A21058) for 1 hour at room temperature in the dark. Cells were then washed and analyzed for fluorescence at both wavelengths using the Odyssey Infrared Imaging System (LI-COR Biosciences). Phosphorylated ErbB2 and EGFR signal was normalized to GAPDH signal to generate curves and calculate IC50 values.

[2] = target: ErbB2 insYVMA (HER2-YVMA, SEQ ID NO: 2) (Homo sapiens, UniProt P04626, INS775YVMA/P1170A); test: biochemical; details: ErbB2 insYVMA enzyme assay
ErbB2 WT = ErbB2 WT (Homo sapiens (Human), UniProt P04626); test: ErbB enzyme assay (CisBio HTRF KinEASE-TK), Assay 2; assay type: biochemical
Method: Compound potencies were determined using CisBio's HTRF Kinease-TK assay technology. The kinases were incubated with 250 nM TK-substrate biotin (CisBio, part of cat #62TK0PEC) at 1 mM ATP along with test compounds in a buffer consisting of 25 mM HEPES, pH 7.4, 10 mM MgCl2, 0.01% Triton X-100, and 2% DMSO in a volume of 8 μL. […] After 30-minute incubation at 22° C., the reaction was quenched by adding 8 μL of quench solution containing 62.5 nM Sa-XL665 and 0.25× TK-Ab-Cryptate in HTRF detection buffer (all from CisBio, part of cat #62TK0PEC). After a 1-hour incubation at 22° C., the extent of reaction was determined using a PerkinElmer EnVision multimode plate reader via HTRF dual wavelength detection, and the percent of control (POC) was calculated using a ratiometric emission factor. One hundred POC was determined using DMSO only samples (no compound present), and 0 POC was determined using pre-quenched control reactions.
(§1) Enzyme lots and concentration used are in Table 2.

EGFR = EGFR (Homo sapiens (Human), UniProt P00533); test: ErbB enzyme assay (CisBio HTRF KinEASE-TK), Assay 3; assay type: biochemical
Method: Compound potencies were determined using CisBio's HTRF Kinease-TK assay technology. The kinases were incubated with 250 nM TK-substrate biotin (CisBio, part of cat #62TK0PEC) at 1 mM ATP along with test compounds in a buffer consisting of 25 mM HEPES, pH 7.4, 10 mM MgCl2, 0.01% Triton X-100, and 2% DMSO in a volume of 8 μL. Compounds were prepared as a three-fold serial dilution in DMSO and added to the assay to give the appropriate final concentration. After 30-minute incubation at 22° C., the reaction was quenched by adding 8 μL of quench solution containing 62.5 nM Sa-XL665 and 0.25× TK-Ab-Cryptate in HTRF detection buffer (all from CisBio, part of cat #62TK0PEC). After a 1-hour incubation at 22° C., the extent of reaction was determined using a PerkinElmer EnVision multimode plate reader via HTRF dual wavelength detection, and the percent of control (POC) was calculated using a ratiometric emission factor. One hundred POC was determined using DMSO only samples (no compound present), and 0 POC was determined using pre-quenched control reactions. A 4-parameter logistic curve was fit to the POC values as a function of the concentration of compound, and the IC50 value was the point where the best-fit curve crossed 50 POC.
as §1

EGFR wild type (EGFR WT) = EGFR wild type (EGFR WT) (Homo sapiens (Human), UniProt P00533); test: Cellular phosphorylation assay, EGF-stimulated EGFR phosphorylation in engineered NIH 3T3 cells, Phospho-EGFR DuoSet IC ELISA, Assay 5; assay type: cell-based
Method: NIH 3T3 cells were engineered to express EGFR wild type (EGFR WT; Assay 5, no footnote) with constructs obtained from GenScript and grown in DMEM supplemented with 10% fetal bovine serum and 15 μg/ml blasticidin. Cells were plated in 96-well plates at 20,000 cells/well and allowed to attach overnight at 37° C./5% CO2. Serially diluted compounds were added to the plates for 1 hour at 37° C./5% CO2. EGFR WT cells were stimulated with 100 ng/ml rEGF for an additional 10 minutes at 37° C./5% CO2. After compound incubation, medium was removed from the cells, which were then lysed in 100 μL/well lysis buffer according to the manufacturer's protocol (R&D Systems, DYC1095, Human Phospho-EGFR DuoSet IC ELISA). Same protocol was followed to determine the total levels of phospho-EGFR by measuring the optical density of each well using a VersaMax microplate reader. Curves were then generated and IC50 values calculated.

Chain of ErbB2 insYVMA (HER2-YVMA, SEQ ID NO: 2) (P04626 with tags, fused parts or gaps INS775YVMA/P1170A limits assumed): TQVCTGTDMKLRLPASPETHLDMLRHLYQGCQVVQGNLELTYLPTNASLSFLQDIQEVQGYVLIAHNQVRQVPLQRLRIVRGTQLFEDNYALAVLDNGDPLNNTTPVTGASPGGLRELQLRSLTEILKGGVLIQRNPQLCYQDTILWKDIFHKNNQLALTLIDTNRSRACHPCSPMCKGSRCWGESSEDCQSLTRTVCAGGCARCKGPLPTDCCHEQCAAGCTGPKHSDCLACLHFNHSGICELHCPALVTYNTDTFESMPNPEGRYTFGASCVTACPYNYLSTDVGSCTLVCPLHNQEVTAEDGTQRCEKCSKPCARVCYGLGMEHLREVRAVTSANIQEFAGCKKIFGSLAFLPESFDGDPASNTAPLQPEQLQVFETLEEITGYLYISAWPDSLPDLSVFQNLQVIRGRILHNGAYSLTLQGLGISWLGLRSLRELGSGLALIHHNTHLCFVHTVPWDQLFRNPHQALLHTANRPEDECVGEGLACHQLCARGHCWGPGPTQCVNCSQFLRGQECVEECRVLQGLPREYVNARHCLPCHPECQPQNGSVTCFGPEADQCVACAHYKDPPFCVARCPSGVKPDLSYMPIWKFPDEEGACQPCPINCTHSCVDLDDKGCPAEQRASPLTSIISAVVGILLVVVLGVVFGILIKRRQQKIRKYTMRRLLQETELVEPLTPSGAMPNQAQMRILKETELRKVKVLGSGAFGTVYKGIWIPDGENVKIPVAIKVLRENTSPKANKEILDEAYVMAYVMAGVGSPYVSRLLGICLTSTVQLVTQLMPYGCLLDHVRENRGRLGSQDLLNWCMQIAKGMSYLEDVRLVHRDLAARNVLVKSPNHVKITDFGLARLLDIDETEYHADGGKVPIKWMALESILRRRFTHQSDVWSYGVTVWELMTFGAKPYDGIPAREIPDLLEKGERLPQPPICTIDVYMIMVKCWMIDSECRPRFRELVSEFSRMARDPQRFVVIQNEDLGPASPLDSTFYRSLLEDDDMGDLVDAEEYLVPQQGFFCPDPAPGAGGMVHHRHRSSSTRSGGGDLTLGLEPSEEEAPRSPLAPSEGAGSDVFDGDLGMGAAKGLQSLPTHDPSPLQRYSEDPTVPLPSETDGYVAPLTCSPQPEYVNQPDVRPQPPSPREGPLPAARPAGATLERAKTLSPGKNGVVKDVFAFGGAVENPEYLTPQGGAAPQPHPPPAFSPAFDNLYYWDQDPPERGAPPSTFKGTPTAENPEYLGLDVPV
Chain of ErbB2 WT (P04626 23-1255): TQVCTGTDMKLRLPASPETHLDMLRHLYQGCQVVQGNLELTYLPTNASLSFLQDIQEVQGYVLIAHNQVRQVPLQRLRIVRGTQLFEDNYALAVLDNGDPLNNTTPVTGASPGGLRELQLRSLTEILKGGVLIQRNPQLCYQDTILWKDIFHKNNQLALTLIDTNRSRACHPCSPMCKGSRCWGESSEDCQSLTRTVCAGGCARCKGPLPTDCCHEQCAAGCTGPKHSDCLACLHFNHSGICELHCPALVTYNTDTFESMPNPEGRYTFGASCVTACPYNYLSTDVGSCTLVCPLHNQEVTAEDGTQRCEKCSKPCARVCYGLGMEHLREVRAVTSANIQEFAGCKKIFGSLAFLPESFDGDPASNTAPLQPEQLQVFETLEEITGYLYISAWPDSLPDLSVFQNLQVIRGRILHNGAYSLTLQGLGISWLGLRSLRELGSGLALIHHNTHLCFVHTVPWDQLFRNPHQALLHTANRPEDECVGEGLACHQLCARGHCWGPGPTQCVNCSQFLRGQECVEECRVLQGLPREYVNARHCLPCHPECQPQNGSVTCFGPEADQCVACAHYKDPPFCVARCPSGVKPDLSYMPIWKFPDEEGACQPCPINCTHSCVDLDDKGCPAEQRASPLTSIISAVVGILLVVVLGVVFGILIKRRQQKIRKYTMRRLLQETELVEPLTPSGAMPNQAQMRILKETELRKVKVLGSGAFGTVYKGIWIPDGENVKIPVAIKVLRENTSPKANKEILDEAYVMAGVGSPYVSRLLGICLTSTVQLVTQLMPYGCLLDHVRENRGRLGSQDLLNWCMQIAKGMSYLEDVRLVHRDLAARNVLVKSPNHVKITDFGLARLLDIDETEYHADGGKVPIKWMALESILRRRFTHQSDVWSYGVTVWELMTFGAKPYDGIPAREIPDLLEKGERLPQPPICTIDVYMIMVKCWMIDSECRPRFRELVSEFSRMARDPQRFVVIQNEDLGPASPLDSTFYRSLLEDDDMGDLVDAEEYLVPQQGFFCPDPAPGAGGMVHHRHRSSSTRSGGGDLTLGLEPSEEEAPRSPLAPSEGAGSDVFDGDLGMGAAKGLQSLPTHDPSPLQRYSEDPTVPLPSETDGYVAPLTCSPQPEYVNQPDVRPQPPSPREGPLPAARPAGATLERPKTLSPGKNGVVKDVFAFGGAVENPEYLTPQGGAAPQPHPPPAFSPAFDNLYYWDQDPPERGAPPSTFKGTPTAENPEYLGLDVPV
Chain of ErbB2 with Exon 20 YVMA insertion (HER2-YVMA) (P04626 other isoform, or with tags, fused parts or gaps ins YVMA behind 775): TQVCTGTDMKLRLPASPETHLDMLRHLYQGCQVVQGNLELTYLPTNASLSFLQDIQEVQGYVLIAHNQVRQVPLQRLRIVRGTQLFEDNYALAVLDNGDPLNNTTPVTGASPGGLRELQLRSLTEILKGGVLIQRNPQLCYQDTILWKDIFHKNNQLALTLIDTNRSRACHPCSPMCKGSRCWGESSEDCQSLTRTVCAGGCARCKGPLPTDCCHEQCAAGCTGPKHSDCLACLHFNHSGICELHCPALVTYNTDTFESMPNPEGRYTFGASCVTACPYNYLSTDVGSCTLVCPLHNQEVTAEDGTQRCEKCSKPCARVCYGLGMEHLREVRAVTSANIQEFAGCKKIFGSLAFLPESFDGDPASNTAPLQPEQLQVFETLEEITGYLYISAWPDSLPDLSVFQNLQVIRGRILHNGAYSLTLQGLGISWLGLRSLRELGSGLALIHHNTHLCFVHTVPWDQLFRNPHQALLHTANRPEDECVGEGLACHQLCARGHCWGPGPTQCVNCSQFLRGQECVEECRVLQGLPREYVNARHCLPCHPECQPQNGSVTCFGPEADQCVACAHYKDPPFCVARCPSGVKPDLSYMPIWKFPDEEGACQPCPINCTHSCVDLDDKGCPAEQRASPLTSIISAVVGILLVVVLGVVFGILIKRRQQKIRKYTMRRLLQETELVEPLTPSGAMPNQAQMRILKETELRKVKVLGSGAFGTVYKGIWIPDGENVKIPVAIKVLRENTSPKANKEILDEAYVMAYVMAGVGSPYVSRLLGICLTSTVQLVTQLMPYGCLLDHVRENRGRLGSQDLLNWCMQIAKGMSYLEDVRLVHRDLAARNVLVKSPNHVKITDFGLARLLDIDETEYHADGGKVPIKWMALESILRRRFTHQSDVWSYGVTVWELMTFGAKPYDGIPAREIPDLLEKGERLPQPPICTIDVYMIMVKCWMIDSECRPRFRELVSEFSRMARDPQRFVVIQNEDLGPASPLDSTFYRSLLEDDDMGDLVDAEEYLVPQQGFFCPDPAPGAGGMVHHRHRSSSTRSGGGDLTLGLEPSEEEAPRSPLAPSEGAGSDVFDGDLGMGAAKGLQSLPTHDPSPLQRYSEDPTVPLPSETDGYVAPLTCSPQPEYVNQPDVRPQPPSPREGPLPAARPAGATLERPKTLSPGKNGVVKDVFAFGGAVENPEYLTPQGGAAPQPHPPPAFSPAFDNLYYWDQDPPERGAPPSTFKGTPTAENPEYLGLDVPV
Chain of EGFR (P00533 25-1210): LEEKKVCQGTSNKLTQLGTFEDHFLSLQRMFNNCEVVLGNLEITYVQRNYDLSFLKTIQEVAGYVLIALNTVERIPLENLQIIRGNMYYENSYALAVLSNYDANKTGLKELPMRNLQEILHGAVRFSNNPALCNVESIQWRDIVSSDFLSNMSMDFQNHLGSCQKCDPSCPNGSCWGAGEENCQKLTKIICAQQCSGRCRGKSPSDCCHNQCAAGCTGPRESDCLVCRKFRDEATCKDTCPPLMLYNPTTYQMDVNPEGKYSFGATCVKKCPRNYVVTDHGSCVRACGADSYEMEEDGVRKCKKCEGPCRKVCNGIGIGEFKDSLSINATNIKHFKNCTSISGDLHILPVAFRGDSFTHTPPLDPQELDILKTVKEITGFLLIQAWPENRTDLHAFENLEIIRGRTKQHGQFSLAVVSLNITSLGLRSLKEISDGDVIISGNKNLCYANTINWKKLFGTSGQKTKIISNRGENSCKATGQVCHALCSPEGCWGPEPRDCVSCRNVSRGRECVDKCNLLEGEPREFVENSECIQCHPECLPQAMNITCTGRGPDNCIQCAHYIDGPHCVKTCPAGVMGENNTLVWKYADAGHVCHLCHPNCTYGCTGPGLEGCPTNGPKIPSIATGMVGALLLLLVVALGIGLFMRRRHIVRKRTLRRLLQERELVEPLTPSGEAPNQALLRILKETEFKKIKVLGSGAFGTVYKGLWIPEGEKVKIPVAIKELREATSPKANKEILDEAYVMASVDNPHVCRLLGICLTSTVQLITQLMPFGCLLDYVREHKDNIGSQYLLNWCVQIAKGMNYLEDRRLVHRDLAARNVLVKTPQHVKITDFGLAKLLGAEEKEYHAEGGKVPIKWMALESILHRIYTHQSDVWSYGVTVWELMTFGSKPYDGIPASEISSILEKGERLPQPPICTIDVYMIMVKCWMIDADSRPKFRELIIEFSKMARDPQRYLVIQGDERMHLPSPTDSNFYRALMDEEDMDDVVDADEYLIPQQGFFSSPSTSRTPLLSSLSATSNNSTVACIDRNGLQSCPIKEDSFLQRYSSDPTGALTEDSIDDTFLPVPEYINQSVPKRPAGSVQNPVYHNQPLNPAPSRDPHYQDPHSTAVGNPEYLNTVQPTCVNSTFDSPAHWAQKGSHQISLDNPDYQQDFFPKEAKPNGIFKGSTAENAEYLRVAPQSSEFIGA

SMILES	IC50 [1] [nM]	IC50 ([2]; Assay 1 IC50 (nM)) [nM]	IC50 (ErbB2 WT) [nM]	IC50 (EGFR) [nM]	IC50 (EGFR wild type (EGFR WT)) [nM]	IC50 ([2]; read-out: Assay 1 IC50) [nM]
Cn1cnc2cc(Oc3ccc(Nc4ncnc5cnc(N6C[C@H]7CC[C@@H]6CO7)nc45)cc3Cl)ccc21 [Example 451]	24.7	42.7	63.8	3500	≥ 5000	–
Cc1cc(Nc2ncnc3cnc(N4CC(C)CS4(=O)=O)nc23)ccc1Oc1ccc2c(c1)ncn2C (centres unmarked) [Example 140, 4-methyl-2-(8-((3-methyl-4-((1-methyl-1H-benzo[d]imidazol-5-yl)oxy)phenyl)amino)pyrimido[5,4-d]pyrimidin-2-yl)isothiazolidine 1,1-dioxide]	8.1	–	20.3	6360	≥ 5000	21.3
Cc1cc(Nc2ncnc3cnc(N4CCC5(CCO5)CC4)nc23)ccc1Oc1ccc2c(c1)ncn2C [Example 345]	18.5	–	57.8	≥ 10000	≥ 5000	31.3
Cc1cc(Nc2ncnc3cnc(N(C)C[C@@H]4COCCO4)nc23)ccc1Oc1ccc2c(c1)ncn2C [Example 353]	18.1	–	47.5	≥ 10000	≥ 5000	48.2
Cc1cc(Nc2ncnc3cnc(N(C)CC(F)F)nc23)ccc1Oc1ccn2ncnc2c1 [Example 372]	153	–	70.7	7310	≥ 5000	15.1
CO[C@H]1C[C@@H](Nc2ncc3ncnc(Nc4ccc(Oc5ccc6c(c5)ncn6C)c(C)c4)c3n2)C1 [Example 260]	21.5	–	42	≥ 10000	≥ 5000	31.8
Cn1cnc2cc(Oc3ccc(Nc4ncnc5cnc(N6CC[C@H](C#N)C6)nc45)cc3Cl)ccc21 [Example 152, (S)-1-(8-((3-chloro-4-((1-methyl-1H-benzo[d]imidazol-5-yl)oxy)phenyl)amino)pyrimido[5,4-d]pyrimidin-2-yl)pyrrolidine-3-carbonitrile 2,2,2-trifluoroacetate]	31.9	36.7	78.7	≥ 10000	≥ 5000	–
Cn1cnc2cc(Oc3ccc(Nc4ncnc5cnc(N6C[C@@H]7C[C@H]6CO7)nc45)cc3Cl)ccc21 [Example 440]	58.2	48.7	176	≥ 10000	≥ 5000	–
Cc1c(Oc2ccn3ncnc3c2)ccc(Nc2ncnc3cnc(N4C[C@@H]5C[C@H]4CO5)nc23)c1F [Example 313]	1760	–	–	4150	≥ 5000	–
Cc1cc(Nc2ncnc3cnc(N4CCN[C@@H](C(F)(F)F)C4)nc23)ccc1Oc1ccn2ncnc2c1 [Example 421]	69.9	–	43	4940	≥ 5000	29.3
Cc1cc(Nc2ncnc3cnc(N4CCN[C@H](C(F)(F)F)C4)nc23)ccc1Oc1ccn2ncnc2c1 [Example 355]	182	–	24.5	5040	≥ 5000	19.3
Cc1cc(Nc2ncnc3cnc(N(C)[C@H]4CCOC4)nc23)ccc1Oc1ccn2ncnc2c1 [Example 381]	265	–	9.4	5040	≥ 5000	15.4
C[C@@H]1CN(c2ncc3ncnc(Nc4ccc(Oc5ccc6c(c5)ncn6C)c(Cl)c4)c3n2)CCN1C [Example 439]	45.3	38.7	70	–	≥ 5000	–
COC[C@H](O)CN(C)c1ncc2ncnc(Nc3ccc(Oc4ccn5ncnc5c4)c(Cl)c3)c2n1 [Example 325]	166	–	45.3	4880	≥ 5000	27.5
Clc1cc(Nc2ncnc3cnc(N4C[C@H]5CC[C@@H]4CO5)nc23)ccc1Oc1ccn2ncnc2c1 [Example 389]	127	–	12.2	≥ 10000	≥ 5000	16.7
Cc1cc(Nc2ncnc3cnc(N4CCC[C@H]4C(C)(C)O)nc23)ccc1Oc1ccc2c(c1)ncn2C [Example 408]	42.1	–	65.6	≥ 10000	≥ 5000	32.6
O[C@H]1C[C@@H]2C[C@H]1CN2c1ncc2ncnc(Nc3ccc(Oc4ccn5ncnc5c4)c(Cl)c3)c2n1 [Example 334]	266	–	55.7	1650	≥ 5000	20.4
Cc1cc(Nc2ncnc3cnc(N4CCO[C@]5(CCOC5)C4)nc23)ccc1Oc1ccc2c(c1)ncn2C [Example 357]	–	–	–	≥ 10000	≥ 5000	–
Cc1cc(Nc2ncnc3cnc(N4CC(C(C)(C)O)C4)nc23)ccc1Oc1ccn2ncnc2c1 [Example 343]	1490	–	120	–	≥ 5000	113
Cc1c(Oc2ccc3c(c2)ncn3C)ccc(Nc2ncnc3cnc(N4CC[C@](C)(O)C4)nc23)c1F [Example 310]	–	–	–	–	≥ 5000	–
Cc1cc(Nc2ncnc3cnc(N(C)[C@@H]4CCCOC4)nc23)ccc1Oc1ccc2c(c1)ncn2C [Example 473]	5.8	–	–	1530	≥ 5000	–
Cc1cc(Nc2ncnc3cnc(N4C[C@H]5CC[C@@H]4CO5)nc23)ccc1Oc1ccn2ncnc2c1 [Example 127, N-(4-([1,2,4]triazolo[1,5-a]pyridin-7-yloxy)-3-methylphenyl)-6-((1R,4R)-2-oxa-5-azabicyclo[2.2.2]octan-5-yl)pyrimido[5,4-d]pyrimidin-4-amine]	151	–	–	≥ 10000	≥ 5000	40.7
Cc1cc(Nc2ncnc3cnc(N4CCC5COCC54)nc23)ccc1Oc1ccc2c(c1)ncn2C (centres unmarked) [Example 472]	–	–	–	–	≥ 5000	–
Cc1cc(Nc2ncnc3cnc(N4CC[C@](C)(O)C4)nc23)ccc1Oc1ccc2c(c1)ncn2C [Example 294]	–	–	–	–	≥ 5000	–
CCOc1ncc2ncnc(Nc3ccc(Oc4ccc5c(c4)ncn5C)c(C)c3)c2n1 [Example 13, 6-ethoxy-N-(3-methyl-4-((1-methyl-1H-benzo[d]imidazol-5-yl)oxy)phenyl)pyrimido[5,4-d]pyrimidin-4-amine]	295	–	–	≥ 10000	≥ 5000	35.1
Cc1cc(Nc2ncnc3cnc(N4CCC(S(C)(=O)=O)CC4)nc23)ccc1Oc1ccc2c(c1)ncn2C [Example 224]	–	–	–	≥ 10000	≥ 5000	–
